The values that follow come from article PMC8043124 (ACS Infectious Diseases, 2021).

Experiment [1] relates to P. aeruginosa clinical isolates (BWH006, BWH012, BWH013, BWH021, BWH027). As to the kind of experiment: Checkerboard assay of potentiator-antibiotic pairs in clinical isolates. In kind it is cell-based, Pseudomonas aeruginosa. Conditions: for Antibiotic MIC with WD40 relative to clinical breakpoint: 10 μM WD40, MIC95, breakpoints for Gram-positive species (EUCAST); for MIC of antibiotic alone: range over isolates, Figure 6 names MIC95.

For experiment [2], the system named is P. aeruginosa (strain PA14). The experiment is described as follows: Checkerboard assay of potentiator-antibiotic pairs. In kind it is cell-based, Pseudomonas aeruginosa. Conditions: for Antibiotic MIC with WD40 relative to clinical breakpoint: PA14, with WD40, breakpoints for Gram-positive species (EUCAST).

For the compound `CC(=O)O[C@H]1C[C@@]2(C)[C@@H](C[C@@H](O)[C@H]3[C@@]4(C)CC[C@@H](O)[C@@H](C)[C@@H]4CC[C@@]32C)/C1=C(\CCC=C(C)C)C(=O)O` [fusidic acid], the “Antibiotic MIC with WD40 relative to clinical breakpoint” value in experiment [1] is listed as “did not meet their clinical breakpoints”; in experiment [2], “clinical breakpoints were met”. In experiment [1], the “MIC of antibiotic alone” value was 512 to 1024 µg/mL.

On to `CO[C@H]1/C=C/O[C@@]2(C)Oc3c(C)c(O)c4c(O)c(c(/C=N/N5CCN(C)CC5)c(O)c4c3C2=O)NC(=O)/C(C)=C\C=C\[C@H](C)[C@H](O)[C@@H](C)[C@@H](O)[C@@H](C)[C@H](OC(C)=O)[C@@H]1C` [rifampin], for which the “Antibiotic MIC with WD40 relative to clinical breakpoint” value was “below its clinical breakpoint” in experiment [1] and “to the clinical breakpoint” in experiment [2]. The “MIC of antibiotic alone” value in experiment [1] is 8 to 16 µg/mL; in experiment [2] (PA14) it was 512 µg/mL.
